Measured values reported in PubChem BioAssay AID179 (DTP/NCI, 2004).
Where “and” joins values, the source holds several entries; their conditions need not be identical. Equal entries are not always repeated. Calls of active or inactive are those of the source.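 The calls were made as follows: active = compounds giving half or more protection of infected cells from virus-caused growth loss, again on retest; inactive = the rest.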 Where a SMILES comes first, the peptide text is derived from it. [ ]: non-standard residue; d: D form. The star is where a group is joined. NMeF = CN[CH](Cc1ccccc1)C(=O)O; NMeV = CN[CH](C(=O)O)C(C)C; Boc = CC(C)(C)OC(=O)*; OBn = c1ccc(CO*)cc1

Tested on: CEM cells HIV-1 protection, formazan growth assay
Assay: NCI AIDS Antiviral Assay
Conditions: for IC50: measured here: growth of uninfected CEM cells
Procedure, shortened: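 Protection of CEM cells against HIV-1 was scored from cell growth (soluble formazan) across five concentrations, with parallel uninfected cells. Lack of protection may reflect toxicity.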

SMILES | EC50 [µM] | IC50 | outcome
CC1c2c(cc(=O)[nH]c2O)C(=O)N1Cc1ccccc1 (centres undefined) | > 347 | 302 µM | –
Nc1cc(Cl)cc(Cl)c1O | > 162 | 120 µM | –
O=c1[nH]c(=O)n(CCOc2ccccc2)cc1Nc1ccccc1 | > 200 | > 200 µM | –
CC(C)C(NC(=O)OC(C)(C)C)C(=O)N(C)C(Cc1ccccc1)C(=O)N(C)C(C(=O)OCc1ccccc1)C(C)C (stereo not drawn) (Boc-Val-[NMeF]-[NMeV]-OBn; configuration not given here) | > 200 | 81.3 µM and 110 µM | –
C=C(CCC(C)C1CCC2C3=C(C(=O)CC21C)C1(C)CCC(=O)[C@@H](C)C1CC3=O)C(C)C(=O)O (some centres undefined) | > 200 | 46.8 µM | –
Cc1nnn[n-]1.N.N.N.N.N.[Cl-].[Co+3] | > 832 | > 832 µM | –
CC1CN=C(NS(=O)(=O)c2cc(C(=O)Nc3ccc(F)cc3)c(Cl)cc2S)NN1 (centres undefined) | > 200 | 24 µM | –
CC(C)=Nn1cnc(C(=N)C#N)c1N | > 200 | > 200 µM | –
CC(=O)/C(=C/N1CC(=O)NC1=S)C(=O)Nc1ccccc1 | > 200 | > 200 µM | –
CC(=O)Oc1ccc(C)c2c1[C@H]1CC[C@]3(C)[C@@H](OC(C)=O)CC[C@H]3[C@@H]1CC2 | > 200 | 32.4 µM | –
COC(=O)c1cc(C(c2cc(C)c(O)c(C(=O)OC)c2)c2cc(C)c(O)c(C(=O)OC)c2)cc(C)c1O | – | – | inactive
CC(C)(C)C1=CC(C)(n2[nH]c(=O)n(-c3ccccc3)c2=O)C=C(C(C)(C)C)C1=O | > 200 | 97.7 µM | –
CCCCCCc1nn2c(-c3ccncc3)nnc2s1 | > 100 | 52.5 µM | –
CC1NC(/C(=C/c2ccccc2O)NC(=O)c2ccccc2)OC1=O (centres undefined) | > 50.1 | > 50.1 µM | –
COC(=O)c1cnn2c1ccc1ccccc12 | > 200 | 29.5 µM | –
CC(C)C(NCc1c2ccccc2[n+]([O-])c2ccccc12)C(=O)O (centres undefined) | – | – | inactive

SMILES | EC50 [µM] | IC50 | outcome
CC(=O)c1cccc(NC(=O)C(=O)C(C(=O)c2ccccc2F)C2OC(=O)c3ccccc32)c1 (centres undefined) | > 389 | 15.8 µM | –
COc1cc2ccc1NC(=O)N1CCN(CC1)C(=O)Nc1ccc(cc1OC)-c1ccc(c(OC)c1)NC(=O)N1CCN(CC1)C(=O)Nc1ccc-2cc1OC | > 0.933 | > 0.933 µM | –
O=C(O)CCCCSCCCCCCSCCCCC(=O)O | > 141 | > 141 µM | –
CCCNC(=O)Cn1c(-c2ccccc2)cc2ccccc21 | > 200 | > 200 µM | –
CCC1(c2ccc(N3C(=O)c4cccc5cc([N+](=O)[O-])cc(c45)C3=O)cc2)CCC(=O)NC1=O (centres undefined) | > 151 | 13.5 µM | –
CS(=O)(=O)OCCN1CCN(C(=O)c2cccc3c(Nc4ccc(S(=O)(=O)N=C(N)N)cc4)c4ccccc4nc23)CC1 | > 35.5 | > 35.5 µM | –
COc1cc2c(cc1OC)CC(=O)Nc1cc(OC)c(OC)cc1CC2 | – | – | inactive
COC(=O)c1cc(C(=O)OC)c(CC(=O)C(=O)Nc2ccc(Cl)c(C(F)(F)F)c2)nc1CC(=O)C(=O)Nc1ccc(Cl)c(C(F)(F)F)c1 | > 200 | 148 µM | –
O=C(CC(=O)Nc1ccc(C(=O)O)cc1)Nc1ccc(C(=O)O)cc1 | > 200 | > 200 µM | –
COC(=O)c1cc(/C=C2\Cc3cc4c(cc3C2=O)CCC4)cc2c1CCC2 | > 200 | > 200 µM | –
O=C(CC(O)(C(F)(F)F)C(F)(F)F)c1ccc(Cl)cc1 | > 200 | > 200 µM | –
C=C(C)C1CC2=C(O1)C(=O)c1cccc(O)c1C2=O (centres undefined) | > 2 | 0.468 µM | –
CCOC(=O)C1C(=O)C(=O)N2CCc3c([nH]c4ccccc34)C12 (centres undefined) | > 263 | 166 µM | –
Cc1cc2c(=O)cc(-c3cccs3)oc2c(C(=O)O)c1C | – | – | inactive
CC1(C)CCC2(C(=O)OC3OC(CO)C(O)C(O)C3O)CCC3(CO)C(=CCC4C5(C)CC(O)C(O)C(C)(C(=O)OC6OC(CO)C(O)C(O)C6O)C5CCC43C)C2C1 (centres undefined) | – | – | inactive
CC(C)C(=O)CC(c1ccc(Br)cc1)N1N=C(C(C)C)CC1c1ccc(Br)cc1 (centres undefined) | > 10 | > 10 µM | –
